# Data reported in patent publication US20190014793A1, “METHOD OF PROVIDING NUTRITION TO INFANTS” (ABBOTT LABORATORIES, priority 2011, published 2019).
# Columns and labels:
# [1] = Merck Index, 11th Ed.; cited from earlier work
# [2] = Amino acid solubility considerations (estimated concentration v. solubility limit); assay type: physicochemical; details: % of solubility limit at 25° C.
Compound,"Sterile liquid protein concentration, % of limit [2]","Solubility limit of free amino acid, 25° C. [1]"
"N[C@@H](Cc1ccccc1)C(=O)O [Phe, L-phenylalanine]",27%,29.6 mg/mL
"CC(C)C[C@H](N)C(=O)O [Leu, Leucine]",67%,24.26 mg/mL
"N[C@@H](Cc1ccc(O)cc1)C(=O)O [Tyr, L-tyrosine]",400%,–

# Now from value to compound, other results behind:
"Sterile liquid protein concentration, % of limit [2]",Compound,"Solubility limit of free amino acid, 25° C. [1]"
22%,"CC[C@H](C)[C@H](N)C(=O)O [Ile, Isoleucine]",41.2 mg/mL
13%,"CC(C)[C@H](N)C(=O)O [Val, Valine]",88.5 mg/mL
